Results on 15 compounds are retold here after PubChem BioAssay (NCI).

Among the test systems are ACHN renal; HCT-15 colon; HOP-92 NSCLC; HT29 colon; NCI-H226 lung; NCI-H460 lung; SN12C renal; UO-31 renal; PC-3 prostate.
Experiment in all cases: NCI-60 cell line screen, 48 h

The structures appear in SMILES notation. Where “and” joins values, the source holds several entries; their conditions need not be identical. Equal values may be shown once.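 How tested: cells in 96-well plates exposed to compound for 48 hours at five concentrations. GI50 marks 50% less growth. TGI: total growth inhibition.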

Turning to `CN(C)C(=S)/N=c1\ssc(=S)n1C`, the TGI in the assay on ACHN renal, with HCT-15 colon, in the assay with HOP-92 NSCLC, in the assay with HT29 colon, in the assay on NCI-H226 lung and in the assay with NCI-H460 lung was above 100 µM throughout. Moreover, the TGI with SN12C renal and with UO-31 renal was above 100 µM each time.

As to `COC(=O)C(=O)C(CC(=O)Nc1ccc(C)cc1)C(=O)OC` (centres undefined), the TGI in the assay with ACHN renal, in the assay on HCT-15 colon, in the assay on HOP-92 NSCLC, with HT29 colon, in the assay on NCI-H226 lung and in the assay with NCI-H460 lung was above 100 µM each time. In addition, the TGI in the assay with SN12C renal and in the assay on UO-31 renal was above 100 µM throughout.

Take `COC(=O)c1cc(=O)nc2cc3cccccc3n12`: the TGI in the assay with ACHN renal, in the assay with HCT-15 colon, in the assay with HT29 colon, with NCI-H226 lung, with NCI-H460 lung and in the assay on SN12C renal was above 100 µM each time. Besides, the TGI in the assay with UO-31 renal was above 100 µM.

In the case of `C1=Cc2nc1c(-c1ccccc1)c1ccc([nH]1)c(-c1ccccc1)c1nc(c(-c3ccccc3)c3ccc([nH]3)c2-c2ccccc2)C=C1`, the TGI in the assay on ACHN renal, in the assay on HCT-15 colon, in the assay on HOP-92 NSCLC, in the assay with HT29 colon, with NCI-H226 lung and with NCI-H460 lung was above 100 µM throughout. In addition, the TGI in the assay with SN12C renal and in the assay on UO-31 renal was above 100 µM throughout.

With `CO[C@H]1/C=C/O[C@@]2(C)Oc3c(C)c(O)c4c(O)c(c(/C=N/N5CCN(C)CC5)c(O)c4c3C2=O)NC(=O)/C(C)=C\C=C\[C@H](C)[C@H](O)[C@@H](C)[C@@H](O)[C@@H](C)[C@H](OC(C)=O)[C@@H]1C`, the TGI in the assay with ACHN renal, with HT29 colon, in the assay with NCI-H460 lung, in the assay on PC-3 prostate, in the assay with SN12C renal and in the assay on UO-31 renal was above 100 µM in each case.

In the case of `COc1ccccc1-c1cc(=O)c2cc(C)c(C)c(C(=O)O)c2o1`, the TGI in the assay on ACHN renal, with HCT-15 colon, with HOP-92 NSCLC, in the assay on HT29 colon, in the assay with NCI-H460 lung and in the assay with SN12C renal was above 100 µM each time. The same compound returned a TGI with UO-31 renal above 100 µM.

With `O=C1c2ccccc2C(=O)C12CCc1ccccc12`, the TGI in the assay on ACHN renal, in the assay on HCT-15 colon, in the assay on HOP-92 NSCLC, in the assay with HT29 colon, with NCI-H460 lung and in the assay with SN12C renal was above 100 µM in each case. This compound came in with a TGI with UO-31 renal above 100 µM.

Regarding `COc1cc(C(=O)N[C@H]2CCc3cc(OC)c(OC)c(OC)c3-c3ccc(SC)c(=O)cc32)cc(OC)c1OC`, the GI50 in the assay on ACHN renal was 80.4 nM; in the assay on SN12C renal, 14.5 nM; in the assay with UO-31 renal, 266 nM. For the same compound, the TGI with ACHN renal is 25 µM and > 100 µM; with HCT-15 colon, 25 µM; with HOP-92 NSCLC, 25 µM; in the assay on HT29 colon, above 100 µM; in the assay on NCI-H460 lung, 0.0137 µM and 0.0808 µM; in the assay on SN12C renal, 25 µM and 41.2 µM. Further, the TGI in the assay with UO-31 renal was 25 µM and 22.2 µM.

Consider `CCOc1ccc(N=C(NC(=O)c2ccccc2)SC)cc1`, for which the TGI in the assay with ACHN renal, with HCT-15 colon, with HOP-92 NSCLC, with HT29 colon, in the assay on NCI-H226 lung and in the assay on NCI-H460 lung was above 100 µM each time. Further, the TGI in the assay on SN12C renal and in the assay with UO-31 renal was above 100 µM each time.

Take `CC1(C)OC(=S)N(c2ccccc2)C12C=Cc1cc3ccccc3nc1S2` (centres undefined): the TGI in the assay on ACHN renal, in the assay on HCT-15 colon, in the assay on HOP-92 NSCLC, in the assay on HT29 colon, in the assay on NCI-H226 lung and in the assay with NCI-H460 lung was above 100 µM each time. Further, the TGI in the assay on SN12C renal and in the assay with UO-31 renal was above 100 µM in each case.

For `O=C1CCC2(c3ccccc3)Nc3ccccc3N12` (centres undefined), the TGI in the assay on ACHN renal, in the assay with HCT-15 colon, in the assay on HOP-92 NSCLC, in the assay on HT29 colon, with NCI-H226 lung and in the assay on NCI-H460 lung was above 100 µM each time. The TGI in the assay with SN12C renal and in the assay with UO-31 renal was above 100 µM throughout.

Turning to `O=c1c2c(-c3ccccc3)c3ccccc3nc2cnn1-c1ccccc1`, the TGI with ACHN renal, with HCT-15 colon, in the assay with HOP-92 NSCLC, in the assay on HT29 colon, with NCI-H226 lung and with NCI-H460 lung was above 100 µM in each case. The TGI in the assay with SN12C renal and in the assay with UO-31 renal was above 100 µM throughout.

In the case of `CCC1=CCN(c2cc(C)ccn2)OC1c1ccccc1` (centres undefined), the TGI in the assay on ACHN renal, with HCT-15 colon, in the assay with HT29 colon, with NCI-H226 lung, with NCI-H460 lung and in the assay with SN12C renal was above 100 µM in each case. For the same compound, the TGI with UO-31 renal is above 100 µM.

With `CC(=O)OC(C(=O)[O][Sn]([CH3])([CH3])[CH3])c1ccccc1` (centres undefined), the GI50 in the assay on ACHN renal is above 100000 nM; in the assay with HCT-15 colon, above 100 µM; in the assay on HOP-92 NSCLC it was above 100 µM; in the assay on HT29 colon, above 100 µM; in the assay with NCI-H226 lung, above 100 µM; in the assay on NCI-H460 lung, above 100 µM. In addition, the GI50 in the assay with SN12C renal and in the assay with UO-31 renal was above 100000 nM in each case. Also, the TGI in the assay with ACHN renal, in the assay on HCT-15 colon, in the assay on HOP-92 NSCLC, with HT29 colon, in the assay on NCI-H226 lung and in the assay on NCI-H460 lung was above 100 µM each time. The TGI in the assay on SN12C renal and in the assay on UO-31 renal was above 100 µM each time.

For `COC(=O)C(C(=O)C(=O)Nc1ccc(C)cc1C)c1csc(-n2nc(-c3ccccc3)cc2-c2ccccc2)n1` (centres undefined), the TGI in the assay with ACHN renal, in the assay with HCT-15 colon, in the assay with HOP-92 NSCLC, in the assay with HT29 colon, in the assay with NCI-H226 lung and in the assay with NCI-H460 lung was above 100 µM throughout. The TGI with SN12C renal and with UO-31 renal was above 100 µM in each case.
